Laboratory results published in patent publication US20090137577A1, “HETEROCYCLIC COMPOUNDS” (Pfizer Inc., priority 2007, published 2009).

Each compound was assayed against T1, mGluR2 receptor (metabotropic glutamate receptor 2) (Homo sapiens, UniProt Q14416) (assay: mGluR2 potentiator screen (FLIPR, EC10-EC20 glutamate challenge)). Conditions: geometric mean; read-out: mGluR 2 EC50 (geometric mean).
T1 construct: expressed in transfected cells
Assay type: cell-based
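Also: HEK cells stably expressing human mGluR2 with GL15 G protein, Fluo-4 calcium fluorescence read on FLIPR, compounds added before an EC10-EC20 glutamate challenge to detect potentiation.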

T1 sequence (Q14416 19-872, species assumed): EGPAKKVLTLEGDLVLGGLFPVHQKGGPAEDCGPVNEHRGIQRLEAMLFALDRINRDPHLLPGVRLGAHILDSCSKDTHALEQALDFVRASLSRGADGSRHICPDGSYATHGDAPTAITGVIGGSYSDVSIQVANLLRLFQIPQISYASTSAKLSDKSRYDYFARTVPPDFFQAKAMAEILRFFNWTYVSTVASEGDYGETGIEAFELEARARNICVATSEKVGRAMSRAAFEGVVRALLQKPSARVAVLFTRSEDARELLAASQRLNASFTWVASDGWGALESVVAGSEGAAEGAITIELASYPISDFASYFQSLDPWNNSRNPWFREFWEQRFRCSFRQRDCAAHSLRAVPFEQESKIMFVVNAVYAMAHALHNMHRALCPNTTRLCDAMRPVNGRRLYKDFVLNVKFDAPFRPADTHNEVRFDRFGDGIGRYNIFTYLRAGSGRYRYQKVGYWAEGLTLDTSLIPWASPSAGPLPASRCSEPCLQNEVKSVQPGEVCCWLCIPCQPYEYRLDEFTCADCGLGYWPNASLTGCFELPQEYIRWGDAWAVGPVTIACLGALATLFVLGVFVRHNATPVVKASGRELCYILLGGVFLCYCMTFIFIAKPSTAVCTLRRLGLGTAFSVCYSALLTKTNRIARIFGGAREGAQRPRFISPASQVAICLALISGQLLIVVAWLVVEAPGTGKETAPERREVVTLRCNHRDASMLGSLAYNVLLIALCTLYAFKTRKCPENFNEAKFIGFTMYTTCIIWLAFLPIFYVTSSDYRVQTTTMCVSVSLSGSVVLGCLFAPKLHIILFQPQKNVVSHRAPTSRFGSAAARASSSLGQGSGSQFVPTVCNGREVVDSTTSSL

| Compound | EC50 |
| --- | --- |
| CC1CN(Cc2ccc(OCc3nc4ccccc4n3C(C)C)cc2)C(=O)O1 (centres unmarked) [Example 97] | 823 nM |
| CCC(COc1ccc(CN2CC(C)OC2=O)cc1)(c1ccccc1)N(C)C (centres unmarked) [Example 141] | 995 nM |
| C[C@H]1[C@@H](c2ccccc2)OC(=O)N1Cc1ccc(OCc2cccnc2)cc1 [Example 32] | 245 nM |
| Cc1ccccc1-c1ccc(CN2C[C@@H](C)OC2=O)cc1 [Example 180] | 52 nM |
| CC1CN(Cc2ccc(OCCCc3cccnc3)cc2)C(=O)O1 (centres unmarked) [Example 120] | 1150 nM |
| C[C@H]1[C@@H](c2ccccc2)OC(=O)N1Cc1ccc(OCC2CCC2)cc1 [Example 24] | 660 nM |
| CC1CN(Cc2ccc(OCCc3cccc(Cl)c3)cc2)C(=O)O1 (centres unmarked) [Example 99] | 115 nM |
| CC(Oc1ccc(CN2C(=O)OC[C@@H]3CCCC[C@@H]32)cc1)c1ccccc1 (some centres unmarked) [Example 35] | 884 nM |
| CC(C)CCOc1ccc(CN2CC(C)OC2=O)cc1 (centres unmarked) [Example 143] | 75.5 nM |
| CC(=O)c1ccccc1-c1ccc(CN2C[C@@H](C)OC2=O)cc1 [Example 175] | 805 nM |
| C[C@H]1[C@@H](c2ccccc2)OC(=O)N1Cc1ccc(OC2CCCCC2)cc1 [Example 56] | 356 nM |
| O=C1OC(c2ccccc2)CN1Cc1ccc(OCCC2CCCCC2)cc1 (centres unmarked) [Example 10] | 395 nM |
| CC(C1CCC1)N1CCN(Cc2ccc(-c3ccc(F)cc3F)cc2)C(=O)C1 (centres unmarked) [Example 306, 4-(1-Cyclobutylethyl)-1-[(2′,4′-difluorobiphenyl-4-yl)methyl]piperazin-2-one] | 327 nM |
| CC1CN(Cc2ccc(OCc3cccc(C#N)c3)cc2)C(=O)O1 (centres unmarked) [Example 129] | 155 nM |
| CCC(C)CCOc1ccc(CN2CC(C)OC2=O)cc1 (centres unmarked) [Example 94] | 42 nM |
| Cc1cc(F)ccc1-c1ccc(CN2C[C@@H](C)OC2=O)cc1 [Example 159] | 13.9 nM |
| C[C@@H]1CN(Cc2ccc(OCCCOc3ccc(F)cc3)nc2)C(=O)O1 [Example 229, (5R)-3-({6-[3-(4-fluorophenoxy)propoxy]pyridin-3-yl}methyl)-5-methyl-1,3-oxazolidin-2-one] | 757 nM |
| CC(Oc1ccc(CN2CCN(CC(C)(C)C)CC2=O)cc1)C1CCCCC1 (centres unmarked) [Example 223] | 584 nM |
| C[C@@H]1CN(Cc2ccc(OCCC3CCCCC3)c(Cl)c2)C(=O)O1 [Example 287, (5R)-3-[3-chloro-4-(2-cyclohexylethoxy)benzyl]-5-methyl-1,3-oxazolidin-2-one] | 174 nM |
| C[C@@H]1CN(Cc2ccc(CN3CCc4ccccc43)cc2)C(=O)O1 [Example 301, (5R)-3-[4-(2,3-Dihydro-1H-indol-1-ylmethyl)benzyl]-5-methyl-1,3-oxazolidin-2-one] | 389 nM |
| C[C@@H]1CN(Cc2ccc(-c3cc(C#N)ccc3Cl)cc2)C(=O)O1 [Example 231] | 683 nM |
| CC(C)Oc1ccc(-c2ccc(CN3C[C@@H](C)OC3=O)cn2)c(F)c1 [Example 279] | 159 nM |
| COc1cccc(COc2ccc(CN3CC(C)OC3=O)cc2)c1 (centres unmarked) [Example 103] | 221 nM |
| CCC(C)CCOc1ccc(CN2C[C@@H](C)OC2=O)cc1 (some centres unmarked) [Example 212] | 77.8 nM |
| CC(C)Oc1ccc(-c2ccc(CN3C[C@@H](C)OC3=O)cc2)cc1 [Example 57, (5R)-3-[(4′-isopropoxybiphenyl-4-yl)methyl]-5-methyl-1,3-oxazolidin-2-one] | < 40.8 nM |
| C[C@@H]1CN(Cc2ccc(-c3ccc(OC(F)(F)F)cc3)nc2)C(=O)O1 [Example 255, (5R)-5-methyl-3-({6-[4-(trifluoromethoxy)phenyl]pyridin-3-yl}methyl)-1,3-oxazolidin-2-one] | 463 nM |
| Cc1ccc(Cl)cc1-c1ccc(CN2C[C@@H](C)OC2=O)cc1 [Example 233] | 45.6 nM |
| CC(C)Oc1ccc(-c2ccc(CN3C[C@H](C)OC3=O)cc2)cc1 [Example 58, (5S)-3-[(4′-isopropoxybiphenyl-4-yl)methyl]-5-methyl-1,3-oxazolidin-2-one] | 105 nM |
| CC(C)CN1CCN(Cc2ccc(OC(C)C3CCCCC3)cc2)C(=O)C1 (centres unmarked) [Example 200] | 191 nM |
